Usually IC50 stands for the point on the concentration scale where inhibition reaches its midpoint.

Activity calls are given as the source filed them.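 The calls were made as follows: active = clearly stronger inhibition of the target kinase than of the helper enzymes tested alone in a counter assay; inactive = the rest.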 Some results are limits rather than exact numbers.

The target in the first test is mevalonate kinase (Streptococcus pneumoniae D39). The test is described as follows: S. pneumoniae MK inhibitor potency, dose response, biochemical, PK/LDH-coupled NADH absorbance, hexokinase coupling counter-screen (AID 557). The note with it: purified MK, PK/LDH coupled NADH absorbance 340 nm.
Turning to `N/C(CCN1CCOCC1)=N/O`, the outcome was inactive.
Consider `Cc1ccsc1C1C(C(=O)O)c2ccccc2C(=O)N1C` (centres undefined), for which the outcome was inactive.
The same measure, in the same setting: as for `CCOC(=O)c1c(C)n(C)c2ccc(O)c(CN3CCC(C)CC3)c12`, the entry is “inactive”; as for `COc1ccc(-n2c(=O)c3c4c(sc3n(CC(=O)NCc3ccco3)c2=O)CCC4)c(OC)c1`, “inactive”.
For the molecule `CCOC(=O)C1CCN(C(=O)CN(c2ccc(OC)c(OC)c2)S(=O)(=O)c2ccccc2)CC1`, the outcome was inactive.
For the molecule `COc1ccc(N(CC(=O)Nc2cc(OC)ccc2OC)S(C)(=O)=O)cc1`, the outcome was inactive.
Same read-out and setting: as for `OCCN(Cc1ccccc1)Cc1cccc(F)c1`, the entry is “inactive”; as for `Cc1noc(C)c1CSc1nnc(C)c(=O)[nH]1`, “inactive”; as for `Cc1ccc2[nH]c(=O)c(CN(CCN3CCOCC3)C(=O)Nc3ccccc3F)cc2c1`, “inactive”.
As for `N#C/C(=C(/O)COC(=O)CCc1ccc(S(=O)(=O)N2CCOCC2)cc1)c1nc2ccccc2[nH]1`, the outcome was inactive.
Take `CN1CCN(c2nc3c(c(=O)n(C)c(=O)n3C)n2Cc2cccc3ccccc23)CC1`: the result was inactive.
As for `CC(C)C1Oc2ccccc2N(CC(=O)NCCCN2C(C)CCCC2C)C1=O` (centres undefined), the result was inactive.
With `Cc1noc(C)c1C(=O)OCC(=O)/C=C1\N(C)c2ccccc2C1(C)C`, the result was inactive.
As for `COc1ccc(CN2C(=O)c3cccnc3C2Nc2cc(Cl)ccc2OC)cc1` (centres undefined), the IC50 was 5.71 µM.
`CC(=O)NC(CCS(C)(=O)=O)C(=O)Nc1c(C)cccc1C` (centres undefined): the result was inactive.
Take `Cc1cc(N2CCN(C(=O)c3ccco3)CC2)n2ncnc2n1`: the result was inactive.
Same read-out and setting: the same measure for `CCOC(=O)c1cc2sc(C)cc2n1CC(=O)N1CCN(C(=O)c2ccco2)CC1`: “inactive”.
The same measure, in the same setting: as for `COc1ccc(N(CC(=O)NCc2cccs2)S(=O)(=O)c2cccnc2)cc1`, the entry is “inactive”; as for `CCCc1[nH]nc2c1C(c1ccc(OC)c(Cn3nnc4ccccc43)c1)C(C#N)=C(N)O2` (centres undefined), “inactive”.
Regarding `O=c1c2ccccc2nnn1CSc1nnc(-c2cccs2)n1Cc1ccccc1`, the result was inactive.
Consider `Nc1nnc(CCS(=O)(=O)c2cc(Cl)ccc2Cl)s1`, for which the result was inactive.
As to `COc1ccc(-c2nc(C#N)c(N3CCOCC3)o2)cc1OC`, the result was inactive.
As to `CC(C)NC(=O)CSc1nnc(-c2ccc(S(=O)(=O)N3CCCC3)cc2)n1CC1CCCO1` (centres undefined), the result was inactive.
The same measure, in the same setting: as for `COc1ccccc1N1CCN(Cc2ccc(OC)c3ccccc23)CC1`, the entry is “inactive”.
On to `CC1=NN(c2ccccc2)C(=O)C1`, for which the result was inactive.
Regarding `COc1ccccc1NS(=O)(=O)c1cccc2cccnc12`, the result was inactive.
As to `Cn1c(SCCOc2cccc(Cl)c2)nnc1-c1ccncc1`, the result was inactive.
On to `Cc1cccc(NC(=O)c2cnc3sccn3c2=O)n1`, for which the result was inactive.
`CC(C)OCCCNC(=O)CN1C(=O)CC(C)(C)S(=O)(=O)c2ccccc21`: the outcome was inactive.
With `Cc1ccc(C(=O)COC(=O)CNC(=O)c2ccco2)cc1`, the outcome was inactive.
With `O=C1C(=O)N(CCN2CCOCC2)C(c2ccncc2)/C1=C(/O)c1ccc2c(c1)OCO2` (centres undefined), the IC50 was 116 µM.
`COc1cccc(N2CCN(C3CC(=O)N(c4ccc(C)c(Cl)c4)C3=O)CC2)c1` (centres undefined): the outcome was inactive.
Same read-out and setting: the same measure for `COc1ccc(NC(=O)c2cc(-c3ccccc3OC)on2)cc1`: “inactive”; for `Cn1cccc1Cc1nnc(SCC(=O)NCc2ccc(F)cc2)n1-c1ccc(F)cc1`: “inactive”; for `COc1c(Br)cc2c(C)c(C(=O)O)oc2c1Br`: “inactive”.
Consider `Cn1cnnc1SCC(=O)n1c2ccccc2c2ccccc21`, for which the result was inactive.
On the same count and under the same terms, as for `O=C(NCc1n[nH]c(=S)n1-c1ccccc1)c1ccco1`, the entry is “inactive”.
As to `CN(C)c1ccc(CNCCC2(O)CCOC(C)(C)C2)cc1` (centres undefined), the result was inactive.
As for `O=c1c(-c2ccccc2)c(O)c2cccc3c2n1CCC3`, the result was inactive.
For `CCCCn1c(Cl)nc2c1c(=O)n(C)c(=O)n2C`, the outcome was inactive.
With `CCS(=O)(=O)NCCc1csc(C)n1`, the outcome was inactive.
For `Cc1occc1C(=O)Nc1nnc(C(F)(F)F)s1`, the result was inactive.
In the case of `CCn1nnc(NC(=O)c2cccc(-c3cc4ccccc4oc3=O)c2)n1`, the result was inactive.
For the molecule `CN(CCC(=O)Nc1ccc2c(c1)OCO2)Cc1ccccc1`, the result was inactive.
Turning to `O=C(NCc1nnc(SCC(=O)N2CCN(c3ccccc3)CC2)o1)c1ccco1`, the result was inactive.
As to `Cc1nn(-c2ccccc2)c2c1C(O)n1c(nc3ccccc31)S2` (centres undefined), the result was inactive.
For `COc1ncnc(OC)c1NC(=O)c1ccc(F)cc1`, the result was inactive.
With `COc1cc2c(cc1OC)CN(Cc1ccc(OC)c(C)c1OC)CC2`, the result was inactive.
Consider `N#Cc1ccc(-c2cccnc2)nc1SCC(=O)Nc1sc2c(c1C#N)CCC2`, for which the result was inactive.
As for `CCOC(=O)c1[nH]c2ccccc2c1NC(=O)c1ccc(Br)o1`, the result was inactive.
In the case of `Cc1cc(NC(=O)c2cc(C3CC3)on2)no1`, the outcome was inactive.
The same measure, in the same setting: as for `CCCCOC(=O)CSC1=C(C#N)C(c2ccccc2OC)C(C#N)C(=O)N1` (centres undefined), the entry is “inactive”; as for `Cc1c(S(=O)(=O)Nc2cccc(Cl)c2)c(=O)n(C)c(=O)n1C`, “inactive”; as for `Cc1ccc(CNC(=O)C2CCN(S(=O)(=O)c3c(C)noc3C)CC2)cc1`, “inactive”.
With `Oc1ccc(-c2n[nH]c(=S)n2Cc2ccccc2)cc1`, the result was inactive.
Same read-out and setting: as for `CC1CCN(S(=O)(=O)c2ccc(NC(=O)CN3CCN(C)CC3)cc2)CC1`, the entry is “inactive”.
`Cc1ccc(NC2c3ncccc3C(=O)N2c2ccccc2C)cc1C` (centres undefined): the IC50 was 4.5 µM.
On to `O=C1CN(C(=O)COC(=O)C2=COCCO2)c2ccccc2N1`, for which the result was inactive.
In the case of `COc1ccc(CN2C(=O)c3cccnc3C2Nc2cc(Cl)c(OC)cc2OC)cc1` (centres undefined), the IC50 is 15.2 µM.
Take `COc1ccc2[nH]cc(C3N4CC5(C)CN3CC(C)(C4)C5=O)c2c1` (centres undefined): the result was inactive.
On the same count and under the same terms, the same measure for `O=c1oc2ccccc2c(O)c1CN1CCCCC1`: “inactive”.
In the case of `COc1cc(NC(=O)c2cc(CC(C)C)on2)c(OC)cc1Cl`, the result was inactive.
As for `COc1ccc2nc(NC(=O)C3CCCN(S(=O)(=O)c4cccc5nonc45)C3)sc2c1` (centres undefined), the result was inactive.
Same read-out and setting: the same measure for `Cc1ccsc1CN1CCN(c2ccccn2)CC1`: “inactive”.
As to `c1ccn2c(SCc3ccc4c(c3)OCO4)nnc2c1`, the result was inactive.
The same measure, in the same setting: the same measure for `O=C(c1ccc(F)cc1)N1CCC(N2CCCCCC2)CC1`: “inactive”; for `CCOc1cc(C(=O)NCCN2CCOCC2)cc(OCC)c1OCC`: “inactive”; for `CCn1c(SCC(=O)c2ccccc2)nc2c(c1=O)SC(C)C2` (centres undefined): “inactive”.
In the case of `COC(=O)C1=C(C)OC(N)=C(C#N)C1c1cc(OC)c(OCC(N)=O)cc1Cl` (centres undefined), the result was inactive.
`CCN(CC)S(=O)(=O)c1ccc(NC2c3ncccc3C(=O)N2Cc2ccccc2)cc1` (centres undefined): the IC50 was 21.9 µM.
As to `CCOc1ccc(-n2c(-c3ccco3)n[nH]c2=S)cc1`, the result was inactive.
Still for that read-out and setting: as for `COc1cc(C2c3c(n[nH]c3C)C(=O)N2c2ccc(C)cc2)ccc1O` (centres undefined), the entry is “inactive”; as for `O=C(NCc1cn2ccccc2n1)c1ccccc1`, “inactive”.
On the same count and under the same terms, the same measure for `CCN(CC)S(=O)(=O)c1ccc(C(=O)OCC(=O)N2CCN(C(=O)c3ccco3)CC2)cc1`: “inactive”; for `Cc1cccc(C(=O)Nc2ccccc2C(=O)OCc2c(C)noc2C)c1`: “inactive”; for `O=C(COC(=O)Cc1ccc(S(=O)(=O)N2CCOCC2)s1)NCc1ccccc1`: “inactive”.
`O=C(c1cc(-c2ccco2)on1)N1CCCc2ccccc21`: the result was inactive.
The same measure, in the same setting: the same measure for `CCC(=O)Nc1ccc(NC(=O)c2ccccn2)cn1`: “inactive”.
On to `COc1ccc(Cl)cc1NC(=O)C1CCCN(S(=O)(=O)c2cccc3nonc23)C1` (centres undefined), for which the result was inactive.
On to `CCn1c(CC(C)C)n[nH]c1=S`, for which the result was inactive.
In the case of `COCCCn1c(SCC(=O)NCc2ccco2)nc2sc3c(c2c1=O)CCC3`, the outcome was inactive.

Biological target in another test: not listed separately
Described as above. Conditions: purified MK, PK/LDH coupled NADH absorbance 340 nm; measured here: coupling enzymes counter-screen (hexokinase). (In general: The purpose of a counterscreen is to sort out artefacts and off-target activity.)
Take `CN(Cc1c(O)ccc2c1oc(=O)c1ccccc12)C1CCCCC1`: the IC50 is 8.83 µM.
The same measure, in the same setting: the same measure for `CCn1nc(-c2cccs2)nc2c(=O)n(C)c(=O)nc1-2`: 9.46 µM; for `O=c1c2ccccc2nc2n1CCC2`: > 1360 µM.
